Experimental data taken from patent publication EP1633390B1, “STABILIZED PHARMACEUTICAL GLP-1 PEPTIDE COMPOSITIONS” (NOVO NORDISK A/S, priority 2003, dated 2012).

Assay: Thioflavin T-test (ThT-test) of physical stability / fibril formation of the formulations
Assay type: physicochemical
Protocol: Physical stability of the formulations is evaluated by means of the Thioflavin T-test. The physical stability of the different formulations is characterized by their tendency to form fibrils. A method to determine the presence of fibrils is the Thioflavin T-test. The histological thiazole dye Thioflavin T (ThT) is used as an indicator of amyloid fibril formation. The method is based on the fluorescent characteristics of ThT. […] The physical stability of the formulations is evaluated by the ThT-test after storage of the formulation is top filled glass cartridges for various time periods.

CCCCCCCCCCCCCCCC(=O)N[C@@H](CCC(=O)NCCCC[C@H](NC(=O)[C@H](C)NC(=O)[C@H](C)NC(=O)[C@H](CCC(N)=O)NC(=O)CNC(=O)[C@H](CCC(=O)O)NC(=O)[C@H](CC(C)C)NC(=O)[C@H](Cc1ccc(O)cc1)NC(=O)[C@H](CO)NC(=O)[C@H](CO)NC(=O)[C@@H](NC(=O)[C@H](CC(=O)O)NC(=O)[C@H](CO)NC(=O)[C@@H](NC(=O)[C@H](Cc1ccccc1)NC(=O)[C@@H](NC(=O)CNC(=O)[C@H](CCC(=O)O)NC(=O)[C@H](C)NC(=O)[C@@H](N)Cc1cnc[nH]1)[C@@H](C)O)[C@@H](C)O)C(C)C)C(=O)N[C@@H](CCC(=O)O)C(=O)N[C@@H](Cc1ccccc1)C(=O)N[C@H](C(=O)N[C@@H](C)C(=O)N[C@@H](Cc1c[nH]c2ccccc12)C(=O)N[C@@H](CC(C)C)C(=O)N[C@H](C(=O)N[C@@H](CCCNC(=N)N)C(=O)NCC(=O)N[C@@H](CCCNC(=N)N)C(=O)NCC(=O)O)C(C)C)[C@@H](C)CC)C(=O)O [Compound 1, Arg^34, Lys^26 (N^∈-(γ-Glu(N^α-hexadecanoyl)))-GLP-1 (7-37)]
physical stability (change in ThT) (Compound 1 adjusted to pH 8.0 before freeze drying, after 1 week and 1 months storage at 37°C): an increase in ThT is seen
physical stability (change in ThT) (Compound 1 adjusted to pH 9.5 and 11.5 before freeze drying, after 1 week and 1 months storage at 37°C): no increase in ThT is seen
physical stability (change in ThT) (formulation manufactured by raising pH above neutral pH (> 8) in the solution containing the drug substance, after 1 month at 37°C): no increase in ThT is seen
